{"source": "patent US10495560B2", "about": "“Method of screening drugs” (KOREA RESEARCH INSTITUTE OF STANDARDS AND SCIENCE, priority 2015, dated 2019)", "key": {"[1]": {"tested_on": "ARPE-19 human retinal epithelial cells", "experiment": "Blind test: screening of drugs by capacitance of the cell layer", "format": "cell-based", "protocol": "After culturing ARPE-19 (retinal pigmented epithelium, American Type Culture Collection (ATCC), ATCC® CRL-2302™), which is human retinal epithelial cells, instead of bEND.3 similarly to the case of using bEND.3, the cultured ARPE-19 was seeded in the same sensor as that used at the time of measuring bEND.3 so that coverage was 100%. Then, stabilization (fixation) was performed under the same conditions and time as those at the time of stabilizing bEND.3.\nAfter the cells were cultured for stabilization for 24 hours, the culture medium was exchanged.\nAs the exchanged medium, a reference culture medium containing tumor necrosis factor-alpha (TNF-α, R&D system, 210-TA-020/CF, 10 ng/ml) or a reference culture medium containing tumor necrosis factor-alpha (TNF-α, R&D system, 210-TA-020/CF 10 ng/ml) and TNF-α antibody (Human TNF-alpha MAb, R&D system, MAB610, 2 μg/ml) was prepared. In this case, as the reference culture medium, DMEM:F12 containing 1 vol % penicillin-streptomycin (Gibco) was used similarly to the case of using bEND.3.\nAfter stabilization was performed, medium exchange was randomly performed on each well using the prepared culture media. In this case, medium exchange was performed on a well (reference sample) at a predetermined position using a pure reference culture medium not containing TNF-α or TNF-α antibody, such that a frequency-dependent reference capacitance value at each measurement time was also simultaneously obtained.\nCapacitance was measured under the same conditions and the same time interval as those in the case of using bEND.3.\nAfter measurement was performed, in each well, in the case in which an absolute value of an alpha value at a time point (t=50 h based on stabilization) after 26 hours of medium exchange is smaller than an absolute value of a reference alpha value at the same time point, the drug was screened as a drug increasing paracellular permeability. […]"}, "[2]": {"tested_on": "tight junction proteins (ZO-1) in ARPE-19 cells", "experiment": "Immunocytochemistry (ZO-1 and DAPI staining) after the blind test", "format": "cell-based, human", "details": "FIG. 9", "protocol": "After performing the screening, as described above, fluorescent staining (using ZO-1 and DAPI) was performed on the endothelial cell layer fixed between two electrodes using immunocytochemistry, and then the endothelial cell layer was observed. FIG. 9A illustrates results of the reference sample, FIG. 9B illustrates results of the sample of which the medium was exchanged with the medium containing TNF-α, and FIG. 9C illustrates results of the sample of which the medium was exchanged with the medium containing both of TNF-α and TNF-α antibody."}}}
{"substance": "TNF-α", "values": [{"measurement": "standardized capacitance value", "setting": "[1]; 100 Hz, standardized to start of stabilization, 48 hours after medium exchange (t=72 h), reference sample 1.44", "result": 1.31}, {"measurement": "time for which the standardized capacitance value was continuously decreased", "setting": "[1]; 100 Hz, based on a time point (t=34 h) after 10 hours of medium exchange", "result": 48, "unit": "h"}, {"measurement": "screening result (drug increasing paracellular permeability)", "setting": "[1]; TNF-α 10 ng/ml, three independent criteria (alpha value at 26 h, standardized capacitance at 48 h, continuous decrease at 100 Hz)", "result": "screened as wells contacting the drug increasing paracellular permeability"}, {"measurement": "alignment of tight junction proteins", "setting": "[2]", "result": "disturbed"}]}
